Results from patent US20130337564A1, “Treatment of Pluripotent Cells” (Janssen Biotech, Inc., priority 2012, published 2013).
Several values for one entry are separate records, joined by “and”; a condition that tells them apart may be missing. Equal values may be shown once.

Tests used:
Assay type in all cases: cell-based
[1] = test system: cells expressing pluripotency markers derived from human embryonic stem cells; assay: MTS viability (toxicity) assay of cells expressing pluripotency markers; design: Raw data (duplicate), first replicate / Average: unit not given here; conditions: for Raw data (duplicate), first replicate / Raw data (duplicate), second replicate: MTS viability assay raw reading; for Raw data (duplicate), first replicate: replicate 1; for Raw data (duplicate), second replicate: replicate 2; for Average: average of duplicate MTS raw readings; for % Control / viability at 10 µM: viability of cells expressing pluripotency markers, relative to control; for viability at 10 µM: Homo sapiens, Embryonic stem cell
Description: Derivation and maintenance of cells expressing pluripotency makers was conducted as has been described in Example 2. Cells were grown in DMEM:F12 supplemented with 2% FCS (Invitrogen), 100 ng/ml Activin A, 20 ng/ml Wnt-3a, and 50 ng/ml IGF (R&D Biosystems). Cells were seeded at a density of 10,000 cells/cm^2 on Falcon polystyrene flasks and grown in monolayer culture at 37° C., 5% CO2, low oxygen. After reaching 60-70% confluence, cells were passed by washing the monolayer with PBS and incubating with TrypLE (Invitrogen) for 3-5 minutes to allow detachment and single cell dispersal.
Screening was conducted using test compounds from a proprietary library of small molecules selected for their ability to inhibit GSK-3B enzyme activity. Compounds from this library were made available as 1 mM stocks, in a 96-well plate format in 50 mM HEPES, 30% DMSO. For assay, cells expressing pluripotency markers were washed, counted, and plated in normal culture medium at a seeding density of 20,000 cells per well in 96-well clear-bottom, dark-well plates (Costar). This seeding density was previously determined to yield optimal monolayer formation in overnight culture. On the following day, culture medium was removed, cell monolayers were rinsed three times with PBS, and test compounds were added to the wells in 80 μl aliquots, each diluted into assay medium at a final assay concentration of 10 μM. On day 2 of the assay, medium was removed from each well and replaced with a fresh aliquot of test compounds diluted into assay medium. Assay medium on days 1 and 2 of culture consisted of DMEM:F12 supplemented with 0.5% FCS and 100 ng/ml Activin A. On days 3 and 4 of culture, medium was removed from each well and replaced with DMEM:F12 supplemented with 2% FCS and 100 ng/ml Activin A (no test compound). On day 4 of assay, 15 μl of MTS (Promega) was added to each well and plates were incubated at 37° C. for 1.5 to 4 hours prior to reading optical density at 490 nm on a SpectraMax (Molecular Devices) instrument. Statistical measures consisting of mean, standard deviation, and coefficient of variation were calculated for each duplicate set. Toxicity was calculated for each test well relative to a positive control (wells treated with Activin A and Wnt3a on days 1 and 2 of culture).
A larger proportion of the compounds have minimal or no measurable toxicity in this cell-based assay.
A small panel of select compounds was repeat tested over a narrow dose titration range, again using cells expressing pluripotency markers in a similar assay as described above.

[2] = test system: human embryonic stem cells (H9 line); assay: High content screening assay: cell number (proliferative response)
Description: (§1) Maintenance of human embryonic stem cells (H9 line) was conducted as described in Example 1. Colonies of cells were maintained in an undifferentiated, pluripotent state with passage on average every four days. Passage was performed by exposing cell cultures to a solution of collagenase (1 mg/ml; Sigma-Aldrich) for 10 to 30 minutes at 37° C. followed by gentle scraping with a pipette tip to recover cell clusters. Clusters were allowed to sediment by gravity, followed by washing to remove residual collagenase. Cell clusters were split at a 1:3 ratio for routine maintenance culture or a 1:1 ratio for immediate assay. The human embryonic stem cell lines used were maintained at passage numbers less than passage 50 and routinely evaluated for normal karyotypic phenotype and absence of mycoplasma contamination.
(§2) Cell clusters used in the assay were evenly resuspended in normal culture medium and plated onto MATRIGEL-coated 96-well Packard VIEWPLATES (PerkinElmer) in volumes of […]. MEF conditioned medium supplemented with 8 ng/ml bFGF was used for initial plating and recovery. Daily feeding was conducted by aspirating spent culture medium from each well and replacing with an equal volume of fresh medium. Plates were maintained at 37° C., 5% CO2 in a humidified box throughout the duration of assay.
(§3) Screening was conducted using test compounds from a proprietary library of small molecules selected for their ability to inhibit GSK-3B enzyme activity. Compounds from this library were made available as 1 mM stocks, in a 96-well plate format in 50 mM HEPES, 30% DMSO. Screening compounds were tested in triplicate or duplicate sets. Primary screening assays were initiated by aspirating culture medium from each well followed by three washes in PBS to remove residual growth factors and serum. Test volumes of 80 to 100 μl per well were added back containing DMEM:F12 base medium (Invitrogen) supplemented with 0.5% FCS (HyClone) and 100 ng/ml activin A (R&D Biosystems) plus 10 μM test compound. Positive control wells contained the same base medium, substituting 10-20 ng/ml Wnt3a (R&D Biosystems) for the test compound. Negative control wells contained base medium with 0.5% FCS and activin A alone (AA only) or alternatively, 0.5% FCS without activin A or Wnt3a (no treatment). Wells were aspirated and fed again with identical solutions on day 2 of assay. On days 3 and 4, all assay wells were aspirated and converted to DMEM:F12 supplemented with 2% FCS and 100 ng/ml activin A (without test compound or Wnt3a); parallel negative control wells were maintained in DMEM:F12 base medium with 2% FCS and activin A (AA only) or alternatively, 2% FCS without activin A (no treatment).
(§4) At the end of culture, cells in 96-well plates were fixed with 4% paraformaldehyde at room temperature for 20 minutes, washed three times with PBS, and then permeabilized with 0.5% Triton X-100 for 20 minutes at room temperature. Alternatively, cells were fixed with ice cold 70% ethanol overnight at −20° C., washed three times with PBS, and then permeabilized with Triton X-100 for 5 minutes at 4° C. After fixing and permeabilizing, cells were washed again three times with PBS and then blocked with 4% chicken serum (Invitrogen) in PBS for 30 minutes at room temperature. Primary antibodies (goat anti-human Sox17 and goat anti-human HNF-3beta; R&D Systems) were diluted 1:100 in 4% chicken serum and added to cells for one hour at room temperature. Alexa Fluor 488 conjugated secondary antibody (chicken anti-goat IgG; Molecular Probes) was diluted 1:200 in PBS and added after washing the cells three times with PBS. To counterstain nuclei, 5 mM Draq5 (Alexis Biochemicals) was added for five minutes at room temperature. Cells were washed once with PBS and left in […] PBS for imaging.
(§5) Cells were imaged using an IN Cell Analyzer 1000 (GE Healthcare) utilizing the 51008bs dichroic for cells stained with Draq5 and Alexa Fluor 488. […]

[3] = test system: Sox17 expression in human embryonic stem cells (H9 line); assay: High content screening assay: Sox17 protein expression (differentiation)
Description: as §1, §2, §3, §4, §5

[4] = test system: HNF-3beta expression in human embryonic stem cells (H9 line); assay: High content screening assay: HNF-3beta protein expression (differentiation)
Description: as §1, §2, §3, §4, §5

[5] = test system: human embryonic stem cells (H9 or H1 lines); assay: Plate reader (MTS) proliferation assay; conditions: for Average: average of replicate raw data
Description: Maintenance of human embryonic stem cells (H9 or H1 lines) was conducted as described in Example 1. Colonies of cells were maintained in an undifferentiated, pluripotent state with passage on average every four days. Passage was performed by exposing cell cultures to a solution of collagenase (1 mg/ml; Sigma-Aldrich) for 10 to 30 minutes at 37° C. followed by gentle scraping with a pipette tip to recover cell clusters. Clusters were allowed to sediment and washed to remove residual collagenase. Cell clusters were split at a ratio of 1:3 monolayer area for routine culture or a 1:1 ratio for immediate assay. The human embryonis stem cell lines used for these examples were maintained at passage numbers less than 50 and routinely evaluated for normal karyotypic phenotype as well as absence of mycoplasm contamination.
Cell clusters used in assay were evenly resuspended in normal culture medium and plated into MATRIGEL-coated 96-well Packard VIEWPLATES (PerkinElmer) in volumes of 100 μl/well. MEF conditioned medium supplemented with 8 ng/ml bFGF) was used for initial plating and recovery. Daily feeding was conducted by aspirating spent culture medium from each well and replacing with an equal volume of fresh medium. Plates were maintained at 37° C. in a humidified box, 5% CO2 throughout the duration of assay.
Primary screening assays were initiated by aspirating culture medium from each well followed by three washes in PBS to remove residual growth factors and serum. Test volumes of 80-100 μl per well were added back containing DMEM:F12 base medium (Invitrogen) supplemented with 0.5% FCS (HyClone) and 100 ng/ml activin A (R&D Biosystems) and 10 μM test compound. Positive control wells contained the same medium substituting 10-20 ng/ml Wnt3a (R&D Biosystems). Negative control wells contained base medium with 0.5% FCS without activin A or Wnt3a. Screening compounds were tested in triplicate. Wells were aspirated and fed again with identical solutions on day 2 of the assay. On days 3 and 4, all assay wells were aspirated and converted to DMEM:F 12 supplemented with 2% FCS and 100 ng/ml activin A with the exception of negative control wells which were maintained in DMEM:F12 base medium with 2% FCS.
On day 4 of assay, 15-20 μl of MTS (Promega) was added to each well and plates were incubated at 37° C. for 1.5 to 4 hours. Densitometric readings at OD490 were determined using a Molecular Devices spectrophotometer plate reader. Average readings for replicate sets were calculated along with standard deviation and coefficient of variation. Experimental wells were compared to the Activin A/Wnt3a positive control to calculate a percent control value as a measure of proliferation.
Strong hits are defined as greater than or equal to 120% of control values; moderate hits are defined as falling within the interval of 60-120% of control values. A significant number of compounds induce a proliferative response in this assay.

[6] = 10 μM test compound with 100 ng/ml activin A on days 1-2, H9, total intensity by IN Cell Analyzer, strong and moderate hits
[7] = total intensity normalised to Wnt 3a/AA control

Compound	Raw data (duplicate), first replicate [1]	Raw data (duplicate), second replicate [1]	Average [1]	% Control [1] [%]	Proliferative Response Fold over Wnt 3a/AA control ([2]; 10 μM test compound with 100 ng/ml activin A on days 1-2, H9, total cell number by IN Cell Analyzer, strong and moderate hits)	Proliferative Response Total cells ([2]; cell number in the wells analysed for HNF-3b expression)	Proliferative Response Fold over Wnt 3a/AA control ([2]; cell number in the wells analysed for HNF-3b expression, normalised to Wnt 3a/AA control) [fold]	Proliferative Response Total cells ([2]; cell number in the wells analysed for SOX-17 expression)	Proliferative Response Fold over Wnt 3a/AA control ([2]; cell number in the wells analysed for SOX-17 expression, normalised to Wnt 3a/AA control) [fold]	SOX17 Expression, Fold over Wnt 3a/AA control [3, 6]	SOX-17 Expression Total Intensity ([3]; total intensity)	SOX-17 Expression Fold over Wnt 3a/AA control [3, 7] [fold]	HNF3β Expression, Fold over Wnt 3a/AA control [4, 6]	HNF-3b Expression Total Intensity [4]	HNF-3b Expression Fold over Wnt 3a/AA control [4, 7] [fold]	viability at 10 µM [1] [%]	activity at 10 µM ([5]; Homo sapiens, Embryonic stem cell, 96 h, 10 μM test compound with 100 ng/ml activin A on days 1-2, MTS OD490 on day 4, vs Activin A/Wnt3a positive control, strong and moderate hits) [%]	Average [5]	% Control Value (proliferation) ([5]; 10 μM test compound with 100 ng/ml activin A on days 1-2, MTS OD490 on day 4, vs Activin A/Wnt3a positive control, strong and moderate hits) [%]	Raw Data ([5]; replicate wells, plate reader proliferation screen of GSK-3B inhibitors)
O=C1CCCCn2cc(c3cccnc32)C2=C(C(=O)NC2=O)c2cn(c3ncccc23)CCCC1 [Compound 11, 8,9,11,12,13,14-Hexahydro-6H,21H-5,24:15,20-di(metheno)dipyrido[2,3-b:3′,2′-h]pyrrolo[3,4-e][1,10]diazacyclononadecine-10,21,23(7H,22H)-trione]	0.743	0.638	0.691	84.1	0.6025 Fold over Wnt 3a/AA control	3043	0.6025	2892.5	0.363	0.5686 Fold over Wnt 3a/AA control	213165000	0.5686	0.5866 Fold over Wnt 3a/AA control	269570000	0.5866	–	–	–	–	–
O=C1NC(=O)C(c2nn(CCCO)c3ccccc23)=C1c1cn(-c2ccc3ccccc3c2)c2ncccc12 [Compound 19, 3-[1-(3-Hydroxypropyl)-1H-indazol-3-yl]-4-(1-naphthalen-2-yl-1H-pyrrolo[2,3-b]pyridin-3-yl)-1H-pyrrole-2,5-dione]	–	–	–	–	–	–	–	–	–	–	–	–	–	0	–	85.2	–	–	–	–
COc1ncc(C2=C(c3cn(CCc4ccccc4)c4ncccc34)C(=O)NC2=O)c(OC)n1 [Compound 98, 3-[2,4-Bis(methyloxy)pyrimidin-5-yl]-4-[1-(2-phenylethyl)-1H-pyrrolo[2,3-b]pyridin-3-yl]-1H-pyrrole-2,5-dione]	0.758	0.575	0.667	–	–	–	–	–	–	–	–	–	–	–	–	88.1	88	0.6374	–	–
O=C1NC(=O)C2=C1c1cn(c3ccccc13)CCOCCOCCN(Cc1ccccc1)CCn1cc2c2ccccc21 [Compound 105, 14-(Phenylmethyl)-6,7,9,10,13,14,15,16-octahydro-12H,23H-5,26:17,22-di(metheno)dibenzo[k,q]pyrrolo[3,4-n][1,4,7,10,19]dioxatriacyclohenicosine-23,25(24H)-dione]	0.916	0.859	0.887	124.0	–	–	–	–	–	–	–	–	–	–	–	–	–	1.2038	183.8	1.0968 and 1.3108
